The pIC50 is the negative decadic logarithm of the IC50, by convention in mol/L.

The assay has as its target recombinant human HPK1 (Homo sapiens (Human), UniProt Q92918). Description: HPK1 kinase assay (Promega ADP-Glo kinase assay). The format is biochemical. The conditions noted are these: In vitro activity against HPK1, 5 ng HPK1, MBP substrate, ATP 25 μM, 30° C. 40 minutes. On the procedure:
HPK1 kinase activity was measured by Promega's ADP-Glo™ kinase assay. In this assay, 5 ng of recombinant human HPK1 (signalchem) is incubated with 5 μL of compounds (0.5% DMSO), 5 μL of MBP (0.5 μg/μl) and 5 μL of ATP (25 μM) in buffer (40 mM Tris, 7.5; 20 mM MgCl2; 0.1 mg/ml BSA; 50 μM DTT.). The assay was started by incubating the reaction mixture in a 96-well plate at 30° C. for 40 minutes. After the incubation, 25 μL ADP-Glo reagent was added and the reaction was incubated at room temperature for 40-min to stop the reaction and degrade residual ATP. The ADP product was then converted to ATP by adding 50 μL per well of detection reagent. Luminescence was detected after 30-min room temperature incubation with the Molecular device I3X plate reader. The IC50 values were calculated from a series of percent inhibition values determined at a range of inhibitor concentration using software routines as implemented in the GraphPad Prism 7 software and SigmaPlot13.0.
A general note: In ADP-Glo the light output rises with the ADP produced.

pIC50: −log10 of the molar value. Structures can show the parent of a compound that is named as a salt.

Sequence of recombinant human HPK1 (Q92918 whole entry): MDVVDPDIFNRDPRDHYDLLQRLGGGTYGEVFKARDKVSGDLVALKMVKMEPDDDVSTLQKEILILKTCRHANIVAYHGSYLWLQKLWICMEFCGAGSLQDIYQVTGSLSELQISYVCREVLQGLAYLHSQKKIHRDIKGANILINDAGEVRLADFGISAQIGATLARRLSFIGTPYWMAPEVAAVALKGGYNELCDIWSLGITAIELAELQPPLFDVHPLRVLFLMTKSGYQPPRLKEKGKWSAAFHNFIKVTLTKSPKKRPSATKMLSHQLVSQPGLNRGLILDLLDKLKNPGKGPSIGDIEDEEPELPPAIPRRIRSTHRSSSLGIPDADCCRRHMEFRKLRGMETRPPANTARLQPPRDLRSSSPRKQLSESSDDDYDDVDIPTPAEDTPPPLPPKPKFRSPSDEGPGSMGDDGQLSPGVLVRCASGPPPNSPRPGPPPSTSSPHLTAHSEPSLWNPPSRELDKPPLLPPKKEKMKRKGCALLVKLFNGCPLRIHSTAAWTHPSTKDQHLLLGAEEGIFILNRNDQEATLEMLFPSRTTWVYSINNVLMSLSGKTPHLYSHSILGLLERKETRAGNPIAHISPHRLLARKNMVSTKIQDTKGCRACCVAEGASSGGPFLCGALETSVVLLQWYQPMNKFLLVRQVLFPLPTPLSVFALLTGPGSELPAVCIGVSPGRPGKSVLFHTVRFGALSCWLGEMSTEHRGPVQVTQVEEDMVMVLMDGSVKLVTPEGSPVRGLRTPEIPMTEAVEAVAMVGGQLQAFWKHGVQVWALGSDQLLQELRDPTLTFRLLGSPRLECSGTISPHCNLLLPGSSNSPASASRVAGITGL

`CCC(=O)Nc1cn2cc(-c3c(OC)c(F)c(NC(C)C)c4[nH]ncc34)ncc2n1` [Example 162, N-(6-(6-fluoro-7-(isopropylamino)-5-methoxy-1H-indazol-4-yl)imidazo[1,2-a]pyrazin-2-yl)propionamide]: the pIC50 is greater than 7.00. For `COc1c(F)c(NC(C)C)c2[nH]ncc2c1-c1cn2cc(NC(=O)[C@@H]3C[C@@H]3F)nc2cn1` [Example 141, (1S,2S)-2-fluoro-N-(6-(6-fluoro-7-(isopropylamino)-5-methoxy-1H-indazol-4-yl)imidazo[1,2-a]pyrazin-2-yl)cyclopropane-1-carboxamide], the pIC50 is greater than 7.00.

`CC(C)Nc1c(F)c(Cl)c(-c2cn3cc(NC(=O)[C@@H]4C[C@@H]4CO)nc3cn2)c2cn[nH]c12` [Example 38, (IR,2S)-N-(6-(5-chloro-6-fluoro-7-(isopropylamino)-1H-indazol-4-yl)imidazo[1,2-a]pyrazin-2-yl)-2-(hydroxymethyl)cyclopropane-1-carboxamide]: the pIC50 is greater than 7.00.

In the case of `CC(N[S+]([O-])C(C)(C)C)c1c(F)c(C(F)(F)F)c(-c2cn3cc(NC(=O)[C@@H]4C[C@@H]4F)nc3cn2)c2cn[nH]c12` (stereo partly drawn) [Example 87, (1S,2S)-N-(6-(7-(1-((tert-butylsulfinyl)amino)ethyl)-6-fluoro-5-(trifluoromethyl)-1H-indazol-4-yl)imidazo[1,2-a]pyrazin-2-yl)-2-fluorocyclopropane-1-carboxamide], the pIC50 is greater than 7.00.

In the case of `CN(C)c1c(F)c(C(F)(F)F)c(-c2cn3cc(NC(=O)[C@H]4C[C@@H]4F)nc3cn2)c2cn[nH]c12` [Example 31, (1R,2S)-N-(6-(7-(dimethylamino)-6-fluoro-5-(trifluoromethyl)-1H-indazol-4-yl)imidazo[1,2-a]pyrazin-2-yl)-2-fluorocyclopropane-1-carboxamide], the pIC50 is greater than 7.00. Under `CC(C)Nc1c(F)c(CO)c(-c2cn3cc(NC(=O)[C@@H]4C[C@@H]4F)nc3cn2)c2cn[nH]c12` [Example 40, (1S,2S)-2-fluoro-N-(6-(6-fluoro-5-(hydroxymethyl)-7-(isopropylamino)-1H-indazol-4-yl)imidazo[1,2-a]pyrazin-2-yl)cyclopropane-1-carboxamide] stands 6.30 to 7.00. Under `Cc1c(F)c(C2CCOC2)c2[nH]ncc2c1-c1cn2cc(NC(=O)[C@@H]3C[C@@H]3F)nc2cn1` (stereo partly drawn) [Example 6, (1S,2S)-2-fluoro-N-(6-(6-fluoro-5-methyl-7-(tetrahydrofuran-3-yl)-1H-indazol-4-yl)imidazo[1,2-a]pyrazin-2-yl)cyclopropane-1-carboxamide] stands greater than 7.00; under `Cc1c(F)c(NC(C)C)c2[nH]ncc2c1-c1cn2cc(NC(=O)[C@@H]3C[C@H]3F)nc2cn1` [Example 34, (1S,2R)-2-fluoro-N-(6-(6-fluoro-7-(isopropylamino)-5-methyl-1H-indazol-4-yl)imidazo[1,2-a]pyrazin-2-yl)cyclopropane-1-carboxamide], greater than 7.00; under `CC(=O)Nc1cn2cc(-c3c(Cl)c(F)c([C@H](C)NC=O)c4[nH]ncc34)ncc2n1` [Example 140, (S)-N-(6-(5-chloro-6-fluoro-7-(1-formamidoethyl)-1H-indazol-4-yl)imidazo[1,2-a]pyrazin-2-yl)acetamide], greater than 7.00. Under `O=C(Nc1cn2cc(-c3c(Cl)c(F)c(OC4CNC4)c4[nH]ncc34)ncc2n1)[C@@H]1C[C@@H]1F` [Example 143, (1S,2S)-N-(6-(7-(azetidin-3-yloxy)-5-chloro-6-fluoro-1H-indazol-4-yl)imidazo[1,2-a]pyrazin-2-yl)-2-fluorocyclopropane-1-carboxamide formate] stands 6.00 to 6.30; under `CC(=O)Nc1cn2cc(-c3c(Cl)c(F)c(CN4CCC(C)(O)C4)c4[nH]ncc34)ncc2n1` (stereo not drawn) [Example 159, N-(6-(5-chloro-6-fluoro-7-((3-hydroxy-3-methylpyrrolidin-1-yl)methyl)-1H-indazol-4-yl)imidazo[1,2-a]pyrazin-2-yl)acetamide], 6.00 to 6.30. For `CC(C)Nc1c(F)c(Cl)c(-c2cn3cc(NC(=O)Cc4cccnc4)nc3cn2)c2cn[nH]c12` [Example 89, N-(6-(5-chloro-6-fluoro-7-(isopropylamino)-1H-indazol-4-yl)imidazo[1,2-a]pyrazin-2-yl)-2-(pyridin-3-yl)acetamide], the pIC50 was greater than 7.00. Consider `CCC(=O)Nc1cn2cc(-c3c(C(F)F)c(F)c(NC(C)C)c4[nH]ncc34)ncc2n1` [Example 155, N-(6-(5-(difluoromethyl)-6-fluoro-7-(isopropylamino)-1H-indazol-4-yl)imidazo[1,2-a]pyrazin-2-yl)propionamide], for which the pIC50 is greater than 7.00.

`NC(c1c(F)c(C(F)(F)F)c(-c2cn3cc(NC(=O)[C@@H]4C[C@@H]4F)nc3cn2)c2cn[nH]c12)C1CC1` (stereo partly drawn) [Example 44, (1S,2S)-N-(6-(7-(amino(cyclopropyl)methyl)-6-fluoro-5-(trifluoromethyl)-1H-indazol-4-yl)imidazo[1,2-a]pyrazin-2-yl)-2-fluorocyclopropane-1-carboxamide]: the pIC50 was greater than 7.00.

Take `CC(C)Nc1c(F)c(Cl)c(-c2cn3cc(NC(=O)c4ccccc4)nc3cn2)c2cn[nH]c12` [Example 57, N-(6-(5-chloro-6-fluoro-7-(isopropylamino)-1H-indazol-4-yl)imidazo[1,2-a]pyrazin-2-yl)benzamide]: the pIC50 is greater than 7.00.

On to `CC(=O)Nc1cn2cc(-c3c(Cl)c(F)c(C(O)C4CC4)c4[nH]ncc34)ncc2n1` (stereo not drawn) [Example 152, N-(6-(5-chloro-7-(cyclopropyl(hydroxy)methyl)-6-fluoro-1H-indazol-4-yl)imidazo[1,2-a]pyrazin-2-yl)acetamide], for which the pIC50 is greater than 7.00. Under `CC(C)Nc1c(F)c(Cl)c(-c2cn3cc(NC(=O)OC4CCC4)nc3cn2)c2cn[nH]c12` [Example 126, cyclobutyl (6-(5-chloro-6-fluoro-7-(isopropylamino)-1H-indazol-4-yl)imidazo[1,2-a]pyrazin-2-yl)carbamate formate] stands greater than 7.00.

Consider `CC(C)Nc1c(F)c(Cl)c(-c2cn3cc(NC(=O)[C@@H](C)N(C)C)nc3cn2)c2cn[nH]c12` [Example 106, (R)-N-(6-(5-chloro-6-fluoro-7-(isopropylamino)-1H-indazol-4-yl)imidazo[1,2-a]pyrazin-2-yl)-2-(dimethylamino)propanamide], for which the pIC50 is 6.00 to 6.30. In the case of `CC(C)Nc1c(F)c(Cl)c(-c2cn3cc(NC(=O)CCO)nc3cn2)c2cn[nH]c12` [Example 130, N-(6-(5-chloro-6-fluoro-7-(isopropylamino)-1H-indazol-4-yl)imidazo[1,2-a]pyrazin-2-yl)-3-hydroxypropanamide] it was greater than 7.00. Under `COc1c(F)c(NC(C)C)c2[nH]ncc2c1-c1cn2cc(NC(C)=O)nc2cn1` [Example 158, N-(6-(6-fluoro-7-(isopropylamino)-5-methoxy-1H-indazol-4-yl)imidazo[1,2-a]pyrazin-2-yl)acetamide] stands greater than 7.00. Under `CC(=O)NCC(C)c1c(F)c(C(F)(F)F)c(-c2cn3cc(NC(=O)[C@@H]4C[C@@H]4F)nc3cn2)c2cn[nH]c12` (stereo partly drawn) [Example 99, (1S,2S)-N-(6-(7-(1-acetamidopropan-2-yl)-6-fluoro-5-(trifluoromethyl)-1H-indazol-4-yl)imidazo[1,2-a]pyrazin-2-yl)-2-fluorocyclopropane-1-carboxamide] stands greater than 7.00; under `CC(=O)N1CC(Oc2c(F)c(Cl)c(-c3cn4cc(NC(=O)[C@@H]5C[C@@H]5F)nc4cn3)c3cn[nH]c23)C1` [Example 142, (1S,2S)-N-(6-(7-((1-acetylazetidin-3-yl)oxy)-5-chloro-6-fluoro-1H-indazol-4-yl)imidazo[1,2-a]pyrazin-2-yl)-2-fluorocyclopropane-1-carboxamide], 6.30 to 7.00; under `C[C@@H](N[S@+]([O-])C(C)(C)C)c1c(F)c(Cl)c(-c2cn3cc(NC(=O)[C@@H]4C[C@@H]4F)nc3cn2)c2cn[nH]c12` [Example 133, (1S,2S)-N-(6-(7-((R)-1-(((R)-tert-butylsulfinyl)amino)ethyl)-5-chloro-6-fluoro-1H-indazol-4-yl)imidazo[1,2-a]pyrazin-2-yl)-2-fluorocyclopropane-1-carboxamide], greater than 7.00. For the molecule `CC(C)Nc1c(F)c(Cl)c(-c2cn3cc(NC(=O)C4CCN(C)CC4)nc3cn2)c2cn[nH]c12` [Example 123, N-(6-(5-chloro-6-fluoro-7-(isopropylamino)-1H-indazol-4-yl)imidazo[1,2-a]pyrazin-2-yl)-1-methylpiperidine-4-carboxamide], the pIC50 was greater than 7.00. In the case of `CC(=O)Nc1cn2cc(-c3c(Cl)c(F)c([C@H](C)NC(=O)C(F)(F)F)c4[nH]ncc34)ncc2n1` [Example 138, (S)-N-(1-(4-(2-acetamidoimidazo[1,2-a]pyrazin-6-yl)-5-chloro-6-fluoro-1H-indazol-7-yl)ethyl)-2,2,2-trifluoroacetamide] it was greater than 7.00; in that of `CC(N)c1c(F)c(C(F)F)c(-c2cn3cc(NC(=O)[C@@H]4C[C@@H]4F)nc3cn2)c2cn[nH]c12` (stereo partly drawn) [Example 55, (1S,2S)-N-(6-(7-(1-aminoethyl)-5-(difluoromethyl)-6-fluoro-1H-indazol-4-yl)imidazo[1,2-a]pyrazin-2-yl)-2-fluorocyclopropane-1-carboxamide], 6.30 to 7.00. In the case of `Cc1c(F)c(C2CCCC2O)c2[nH]ncc2c1-c1cn2cc(NC(=O)[C@@H]3C[C@@H]3F)nc2cn1` (stereo partly drawn) [Example 9, (1S,2S)-2-fluoro-N-(6-(6-fluoro-7-(2-hydroxycyclopentyl)-5-methyl-1H-indazol-4-yl)imidazo[1,2-a]pyrazin-2-yl)cyclopropane-1-carboxamide] it was greater than 7.00.

(Values after US20250197406A1, “INDAZOLES AS HEMATOPOIETIC PROGENITOR KINASE 1 (HPK1) INHIBITORS AND METHODS FOR USING SAME” (1ST Biotherapeutics, Inc., priority 2022, published 2025).)
